Starred links: 1 amine or outer side, 2 acyl side, 3 side chain; linkers in the order of their positions; H or OH if unused. Residues, ends and D or L forms follow the SMILES beside them. *: point of attachment. MeOSuc = COC(=O)CCC(=O)*; CO = O=C([*:1])[*:2]; CH2Cl = ClC*
Key:
C. parvum = test: Anticryptosporidial effect in BFTE cell culture inoculated with C. parvum oocysts, parasites enumerated 24 hours post-inoculation; assay type: cell-based, Cryptosporidium parvum (bovine isolate); conditions: for Control Percent Survival: 24 hours post-inoculation; for Lowest concentrations with significant reduction (P<0.001) in parasite numbers: concentrations as low as, P<0.001 vs infection control; for Intact (i.e. unexcysted) oocysts in treated BFTE cell monolayers during microscopic enumeration: predominantly associated with concentrations exceeding 100 μg/ml
Procedure: C. parvum (bovine isolate) oocysts used in this study were originally donated by the U.S. Department of Agriculture, Ames, Iowa. The oocysts were isolated from calf manure, preserved in 2.5% potassium dichromate, and used within 3 months of purification. Oocysts were decontaminated by suspension in 20% (vol/vol) 1.05% sodium hypochlorite on ice for 20 minutes. Oocysts were then washed three times in Hanks' balanced salt solution ("HIBSS") and once in RPMI 1640 (available from Sigma, St. Louis, Mo.). Release of sporozoites was achieved by incubating oocysts in an excystation solution consisting of 0.25% (wt/vol) trypsin (available from Sigma, St. Louis, Mo.) and 0.75% (wt/vol) taurodeoxycholic acid (available from Sigma) in HBSS. The resulting suspension was incubated at 37° C. for 45 minutes and microscopically observed to confirm sporozoite release. Sporozoites were completely separated from intact oocysts and oocyst walls by passage through sterile polycarbonate filters (3 micron pore size, available from Millipore Corp., Bedford, Mass.) twice prior to inoculation of bovine fallopian tube epithelial ("BFTE") cell monolayers.
Primary BFTE cell cultures were prepared from bovine fallopian tubes (FT). Fat was trimmed from the serosal surfaces, mucus was gently squeezed from the lumens, and FT were decontaminated by being submerged in 70% ethanol for 30 seconds. The FT were then transferred to sterile culture petri dishes containing HBSS and washed twice. The BFTE cells were harvested either by flushing the FT with HBSS, using a 10 ml syringe equipped with a mouse feeding needle, or by opening the FT lengthwise with scissors and scraping the mucosal surfaces. The BFTE cells were subsequently washed in HBSS by centrifugation at 200×g (force of gravity) for 10 minutes, planted in 75-cm^2 flasks containing RPMI 1640 and cultured in a 5% CO2 incubator at 37° C. for 72 to 120 hours. When the cell lines reached confluency, they were trypsinized, split, and planted onto cover slips positioned on the bottoms of individual wells in 24-well tissue culture plates. When cells reached 80% confluency, they were inoculated with either 10^5 oocysts or 4×10^5 sporozoites per well. Plates were then maintained at 37° C. in a candle jar environment (17% O2, 3% CO2, 80% N2). Growth medium was changed in each well every 72 hours. In wells inoculated with oocysts, the medium was first changed at 24 hours to remove any unexcysted oocysts.
Coverslips were removed at 5, 24, 48, 72, 96, and 120 hours from the inoculated wells containing monolayers of BFTE cells. The coverslips were washed in RPMI 1640, fixed in 100% methanol for 10 minutes, stained with Giemsa stain for 1 hour, and washed three times with double-distilled water (ddH2 O). Coverslips were then mounted on glass slides and examined under oil immersion (1000X), using bright-field microscopy. Parasites were enumerated by counting all developmental stages of C. parvum present in a single scan (67 fields) through the center of each coverslip. The data were statistically compared for significance, using analysis of variance (Fischer's protected least-significant-difference test using a "[…]" statistical analysis application developed by Abacus Concepts, Inc., Berkeley, Calif.).
The anticryptosporidial potential of the protease inhibitor AAT was evaluated in a BFTE cell culture system inoculated with C. parvum oocysts in accordance with the methods detailed in Example I. […] At 24 hours post-inoculation, the BFTE cells were rinsed with RPMI medium, fixed in methanol, and stained with Giemsa. Parasites were enumerated in cell monolayers by brightfield microscopy. Results, as set out in Table 1, represent the mean number of parasites counted per treatment group expressed as a percent, plus or minus the standard deviation, of the mean number of parasites counted in the infection control group.

BFTE cells = test: Cytotoxicity for BFTE cells at the concentrations evaluated; assay type: cell-based, bovine; conditions: at the concentrations evaluated (5-1000 μg/ml)
Procedure: Primary BFTE cell cultures were prepared from bovine fallopian tubes (FT). Fat was trimmed from the serosal surfaces, mucus was gently squeezed from the lumens, and FT were decontaminated by being submerged in 70% ethanol for 30 seconds. The FT were then transferred to sterile culture petri dishes containing HBSS and washed twice. The BFTE cells were harvested either by flushing the FT with HBSS, using a 10 ml syringe equipped with a mouse feeding needle, or by opening the FT lengthwise with scissors and scraping the mucosal surfaces. The BFTE cells were subsequently washed in HBSS by centrifugation at 200×g (force of gravity) for 10 minutes, planted in 75-cm^2 flasks containing RPMI 1640 and cultured in a 5% CO2 incubator at 37° C. for 72 to 120 hours. […]
The anticryptosporidial potential of the protease inhibitor AAT was evaluated in a BFTE cell culture system inoculated with C. parvum oocysts in accordance with the methods detailed in Example I. AAT concentrations of 5, 10, 50 100, and 500 micrograms per milliliter ("μg/ml") in RPMI medium were mixed with C. parvum oocysts and used to inoculate BFTE cell monolayers. […] Results, as set out in Table 1, represent the mean number of parasites counted per treatment group expressed as a percent, plus or minus the standard deviation, of the mean number of parasites counted in the infection control group.

[1] = 5 μg/ml, mean parasites as percent of infection control +/- SD
[2] = 10 μg/ml, mean parasites as percent of infection control +/- SD
[3] = 50 μg/ml, mean parasites as percent of infection control +/- SD
[4] = 100 μg/ml, mean parasites as percent of infection control +/- SD
[5] = 500 μg/ml, mean parasites as percent of infection control +/- SD
[6] = 1000 μg/ml, mean parasites as percent of infection control +/- SD

Molecule: CC(C)[C@H](NC(=O)[C@H](CCCNC(=N)N)NC(=O)N[C@@H](Cc1ccccc1)C(=O)O)C(=O)N[C@H](C=O)CCCNC(=N)N [ANTIPAIN, antipain] ({Phe-CO}-Arg-Val-Arg-aldehyde)
- Control Percent Survival (C. parvum; [1]): 67.7 +/- 7.2%
- Control Percent Survival (C. parvum; [2]): 53.1 +/- 5.8%
- Control Percent Survival (C. parvum; [3]): 42.1 +/- 6.1%
- Control Percent Survival (C. parvum; [4]): 20.9 +/- 2.2%
- Control Percent Survival (C. parvum; [5]): 15.6 +/- 1.4%
- Control Percent Survival (C. parvum; [6]): 6.6 +/- 1.4%
- Lowest concentrations with significant reduction (P<0.001) in parasite numbers (C. parvum): 5 to 10 µg/mL
- Intact (i.e. unexcysted) oocysts in treated BFTE cell monolayers during microscopic enumeration (C. parvum): frequently observed

Molecule: aprotinin
- Control Percent Survival (C. parvum; [1]): 83.9 +/- 6.6%
- Control Percent Survival (C. parvum; [2]): 54.2 +/- 6.0%
- Control Percent Survival (C. parvum; [3]): 36.1 +/- 4.7%
- Control Percent Survival (C. parvum; [4]): 16.8 +/- 5.1%
- Control Percent Survival (C. parvum; [5]): 10.9 +/- 4.7%
- Control Percent Survival (C. parvum; [6]): 9.4 +/- 1.8%
- Lowest concentrations with significant reduction (P<0.001) in parasite numbers (C. parvum): 5 to 10 µg/mL
- Intact (i.e. unexcysted) oocysts in treated BFTE cell monolayers during microscopic enumeration (C. parvum): frequently observed

Molecule: CC(=O)N[C@@H](CC(C)C)C(=O)N[C@@H](CC(C)C)C(=O)N[C@H](C=O)CCCNC(=N)N [Leupeptin, leupeptin]
- Control Percent Survival (C. parvum; [1]): 89.1 +/- 5.4%
- Number of parasites vs infection control (P<0.01) (C. parvum; 10 μg/ml and 50 μg/ml): significantly reduced
- Control Percent Survival (C. parvum; [2]): 64.8 +/- 12.0%
- Control Percent Survival (C. parvum; [3]): 58.7 +/- 11.2%
- Control Percent Survival (C. parvum; [4]): 51.9 +/- 4.6%
- Control Percent Survival (C. parvum; [5]): 43.4 +/- 6.6%

Molecule: O=S(=O)(F)Cc1ccccc1 [PMSF, phenylmethylsulfonyl flouride]
- Control Percent Survival (C. parvum; 1 mM, percent of infection control +/- SD): 68.9 +/- 5.2%
- Control Percent Survival (C. parvum; 2 mM, percent of infection control +/- SD): 55.9 +/- 4.7%
- Control Percent Survival (C. parvum; 3 mM, percent of infection control +/- SD): 40.0 +/- 8.3%
- Number of parasites vs infection control (P<0.001) (C. parvum; 3 mM, P<0.001): significantly reduced

Molecule: COC(=O)CCC(=O)N[C@@H](C)C(=O)N[C@@H](C)C(=O)N1CCC[C@H]1C(=O)N[C@H](C(=O)CCl)C(C)C [MAAPVCK, methoxysuccinyl-ala-ala-pro-valine chloromethylketone] (MeOSuc-AAPV-CH2Cl)
- Control Percent Survival (C. parvum; [1]): 89.1 +/- 5.4%
- Control Percent Survival (C. parvum; [2]): 64.8 +/- 12.0%
- Control Percent Survival (C. parvum; [3]): 58.7 +/- 11.2%
- Control Percent Survival (C. parvum; [4]): 51.9 +/- 4.6%
- Control Percent Survival (C. parvum; [5]): 43.4 +/- 6.6%
- Number of parasites vs infection control (P<0.01) (C. parvum; 500 μg/ml): significantly reduced

Molecule: alpha-1-antitrypsin [AAT]
- Cytotoxicity for BFTE cells (BFTE cells): no evidence of cytotoxicity
- Control Percent Survival (C. parvum; [1]): 49.1 +/- 3.8%
- Control Percent Survival (C. parvum; [2]): 43.9 +/- 4.2%
- Control Percent Survival (C. parvum; [3]): 42.7 +/- 1.6%
- Control Percent Survival (C. parvum; [4]): 30.4 +/- 1.9%
- Control Percent Survival (C. parvum; [5]): 14.7 +/- 6.3%
- Control Percent Survival (C. parvum; [6]): 1.8 +/- 0.4%
- Lowest concentrations with significant reduction (P<0.001) in parasite numbers (C. parvum): 5 to 10 µg/mL
- Intact (i.e. unexcysted) oocysts in treated BFTE cell monolayers during microscopic enumeration (C. parvum): frequently observed

B1: soybean trypsin inhibitor (protein, UniProt P01070 25-205, looked up)
Trypsin inhibitor A: DFVLDNEGNPLENGGTYYILSDITAFGGIRAAPTGNERCPLTVVQSRNELDKGIGTIISSPYRIRFIAEGHPLSLKFDSFAVIMLCVGIPTEWSVVEDLPEGPAVKIGENKDAMDGWFRLERVSDDEFNNYKLVFCPQQAEDDKCGDIGISIDHDDGTRRLVVSKNKPLVVQFQKLDKESL
- Control Percent Survival (C. parvum; [1]): 89.1 +/- 5.4%
- Control Percent Survival (C. parvum; [2]): 64.8 +/- 12.0%
- Number of parasites vs infection control (P<0.01) (C. parvum; 50 μg/ml and 100 μg/ml): significantly reduced
- Control Percent Survival (C. parvum; [3]): 58.7 +/- 11.2%
- Control Percent Survival (C. parvum; [4]): 51.9 +/- 4.6%
- Control Percent Survival (C. parvum; [5]): 43.4 +/- 6.6%

Source: patent publication US5750496A, “Method of controlling cryptosporidium infectons using protease inhibitors” (priority 1996, dated 1998)
